Measured values reported in ChEMBL document CHEMBL1134164, “Antifungal activity of octyl gallate: structural criteria and mode of action” (2001).
≈ marks a conversion by molar mass, not a printed value. Calls of active or inactive are those of the source.

How the values were obtained:
Saccharomyces cerevisiae [1] = assay: Minimum fungicidal concentration against Saccharomyces cerevisiae; format: functional
Saccharomyces cerevisiae [2] = assay: Minimum fungicidal concentration against Saccharomyces cerevisiae (Inactive); format: functional, organism-based
Aspergillus niger [3] = assay: Antifungicidal activity against Aspergillus niger was determined; format: functional
Aspergillus niger [4] = assay: Inhibitory activity against Aspergillus niger was determined; format: functional
Bacillus subtilis = assay: Antimicrobial activity against Bacillus subtilis was determined; format: functional
[5] = system: Corynebacterium ammoniagenes; assay: Antimicrobial activity against Brevibacterium ammoniagenes was determined; format: functional
Candida albicans [6] = assay: Inhibitory activity against Candida albicans was determined; format: functional
Candida albicans [7] = assay: Antifungicidal activity against Candida albicans was determined; format: functional
Klebsiella aerogenes [8] = assay: Antimicrobial activity against Enterobacter aerogenes was determined; format: functional
Escherichia coli [9] = assay: Antimicrobial activity against Escherichia coli was determined; format: functional
Micrococcus luteus [10] = assay: Antimicrobial activity against Micrococcus luteus was determined; format: functional
Proteus vulgaris [11] = assay: Antimicrobial activity against Proteus vulgaris was determined; format: functional
Pseudomonas aeruginosa [12] = assay: Inhibitory activity against Pseudomonas aeruginosa was determined; format: functional
Cutibacterium acnes [13] = assay: Antimicrobial activity against Propionibacterium acnes was determined; format: functional
Proteus vulgaris [14] = assay: Inhibitory activity against Proteus vulgaris was determined; format: functional
Pseudomonas aeruginosa [15] = assay: Antimicrobial activity against Pseudomonas aeruginosa was determined; format: functional
Salmonella enterica = assay: Antimicrobial activity against Salmonella choleraesuis was determined; format: functional
Staphylococcus aureus [16] = assay: Inhibitory activity against Staphylococcus aureus (MRSA) was determined; format: functional
Staphylococcus aureus [17] = assay: Antimicrobial activity against Staphylococcus aureus was determined; format: functional
Saccharomyces cerevisiae [18] = assay: Antifungicidal activity against Saccharomyces cerevisiae was determined; format: functional
Saccharomyces cerevisiae [19] = assay: Inhibitory activity against Saccharomyces cerevisiae was determined; format: functional
Staphylococcus aureus [20] = assay: Antimicrobial activity against Staphylococcus aureus (MRSA) was determined; format: functional
Streptococcus mutans [21] = assay: Antimicrobial activity against Streptococcus mutans was determined; format: functional
Zygosaccharomyces bailii [22] = assay: Antifungicidal activity against Zygosaccharomyces bailii was determined; format: functional
Cutibacterium acnes [23] = assay: Inhibitory activity against Propionibacterium acnes was determined; format: functional
Zygosaccharomyces bailii [24] = assay: Inhibitory activity against Zygosaccharomyces bailii was determined; format: functional
Escherichia coli [25] = assay: Inhibitory activity against Escherichia coli was determined
Micrococcus luteus [26] = assay: Inhibitory activity against Micrococcus luteus was determined
Streptococcus mutans [27] = assay: Inhibitory activity against Streptococcus mutans was determined
Staphylococcus aureus [28] = assay: Inhibitory activity against Staphylococcus aureus was determined
Klebsiella aerogenes [29] = assay: Inhibitory activity against Enterobacter aerogenes was determined
[30] = system: Corynebacterium ammoniagenes; assay: Inhibitory activity against Brevibacterium ammoniagenes was determined
[31] = system: Corynebacterium ammoniagenes; assay: Inhibitory activity against Brevibacterium ammoniagenes was determined; format: functional
Klebsiella aerogenes [32] = assay: Inhibitory activity against Enterobacter aerogenes was determined; format: functional
Escherichia coli [33] = assay: Inhibitory activity against Escherichia coli was determined; format: functional
Micrococcus luteus [34] = assay: Inhibitory activity against Micrococcus luteus was determined; format: functional
Staphylococcus aureus [35] = assay: Inhibitory activity against Staphylococcus aureus was determined; format: functional
Streptococcus mutans [36] = assay: Inhibitory activity against Streptococcus mutans was determined; format: functional

## CCCCCCCOC(=O)/C=C/c1ccc(O)c(O)c1
Saccharomyces cerevisiae [1]
  MFC: 50 µg/mL (≈ 180 µM)

## CCCCCCCCCC(=O)Oc1ccc(O)c(O)c1
Saccharomyces cerevisiae [1]
  MFC: 50 µg/mL (≈ 178 µM)

## CCCCCCCCOC(=O)c1cccc(O)c1O
Saccharomyces cerevisiae [2]
  MIC: inactive

## CCCCCCCCCCCCOC(=O)c1cc(O)c(O)c(O)c1 [DODECYL GALLATE]
Aspergillus niger [3]
  MFC: > 400 µg/mL
Aspergillus niger [4]
  MFC: > 400 µg/mL
Bacillus subtilis
  MBC: 25 µg/mL (≈ 73.9 µM)
[5]
  MBC: 25 µg/mL (≈ 73.9 µM)
Candida albicans [6]
  MFC: > 400 µg/mL
Candida albicans [7]
  MFC: > 400 µg/mL
Klebsiella aerogenes [8]
  MBC: > 800 µg/mL
Escherichia coli [9]
  MBC: > 800 µg/mL
Micrococcus luteus [10]
  MBC: 25 µg/mL (≈ 73.9 µM)
Proteus vulgaris [11]
  MBC: > 800 µg/mL
Pseudomonas aeruginosa [12]
  MIC: > 800 µg/mL
Cutibacterium acnes [13]
  MBC: 6.25 µg/mL (≈ 18.5 µM)
Proteus vulgaris [14]
  MIC: > 800 µg/mL
Pseudomonas aeruginosa [15]
  MBC: > 800 µg/mL
Salmonella enterica
  MBC: 50 µg/mL (≈ 148 µM)
Staphylococcus aureus [16]
  MIC: 12.5 µg/mL (≈ 36.9 µM)
Staphylococcus aureus [17]
  MBC: 25 µg/mL (≈ 73.9 µM)
Saccharomyces cerevisiae [18]
  MFC: > 1600 µg/mL
Saccharomyces cerevisiae [19]
  MFC: > 1600 µg/mL
Staphylococcus aureus [20]
  MBC: 25 µg/mL (≈ 73.9 µM)
Streptococcus mutans [21]
  MBC: 100 µg/mL (≈ 295 µM)
Zygosaccharomyces bailii [22]
  MFC: > 1600 µg/mL
Cutibacterium acnes [23]
  MIC: 6.25 µg/mL (≈ 18.5 µM)
Zygosaccharomyces bailii [24]
  MIC: > 1600 µg/mL
Escherichia coli [25]
  MIC: > 800 µg/mL
Micrococcus luteus [26]
  MIC: 12.5 µg/mL (≈ 36.9 µM)
Streptococcus mutans [27]
  MIC: 100 µg/mL (≈ 295 µM)
Staphylococcus aureus [28]
  MIC: 12.5 µg/mL (≈ 36.9 µM)
Klebsiella aerogenes [29]
  MIC: > 800 µg/mL
[30]
  MIC: 12.5 µg/mL (≈ 36.9 µM)

## CC(C)=CCC/C(C)=C/COC(=O)c1cc(O)c(O)c(O)c1 [Geranyl gallate]
Saccharomyces cerevisiae [1]
  MFC: 50 µg/mL (≈ 163 µM)

## CCCCCCCCOC(=O)c1cc(O)c(O)c(O)c1 [OCTYL_GALLATE]
Aspergillus niger [3]
  MFC: 100 µg/mL (≈ 354 µM)
Aspergillus niger [4]
  MFC: 50 µg/mL (≈ 177 µM)
Bacillus subtilis
  MBC: 25 µg/mL (≈ 88.5 µM)
[5]
  MBC: 50 µg/mL (≈ 177 µM)
[31]
  MIC: 25 µg/mL (≈ 88.5 µM)
Candida albicans [6]
  MFC: 25 µg/mL (≈ 88.5 µM)
Candida albicans [7]
  MFC: 25 µg/mL (≈ 88.5 µM)
Klebsiella aerogenes [32]
  MIC: > 800 µg/mL
Escherichia coli [33]
  MIC: > 800 µg/mL
Klebsiella aerogenes [8]
  MBC: > 800 µg/mL
Escherichia coli [9]
  MBC: > 800 µg/mL
Micrococcus luteus [34]
  MIC: 12.5 µg/mL (≈ 44.3 µM)
Micrococcus luteus [10]
  MBC: 25 µg/mL (≈ 88.5 µM)
Proteus vulgaris [11]
  MBC: 50 µg/mL (≈ 177 µM)
Pseudomonas aeruginosa [12]
  MIC: > 800 µg/mL
Cutibacterium acnes [13]
  MBC: 25 µg/mL (≈ 88.5 µM)
Proteus vulgaris [14]
  MIC: 25 µg/mL (≈ 88.5 µM)
Pseudomonas aeruginosa [15]
  MBC: > 800 µg/mL
Salmonella enterica
  MBC: 12.5 µg/mL (≈ 44.3 µM)
Staphylococcus aureus [16]
  MIC: 25 µg/mL (≈ 88.5 µM)
Staphylococcus aureus [35]
  MIC: 25 µg/mL (≈ 88.5 µM)
Staphylococcus aureus [17]
  MBC: 50 µg/mL (≈ 177 µM)
Streptococcus mutans [36]
  MIC: 50 µg/mL (≈ 177 µM)
Saccharomyces cerevisiae [18]
  MFC: 25 µg/mL (≈ 88.5 µM)
Saccharomyces cerevisiae [19]
  MFC: 25 µg/mL (≈ 88.5 µM)
Staphylococcus aureus [20]
  MBC: 50 µg/mL (≈ 177 µM)
Streptococcus mutans [21]
  MBC: 50 µg/mL (≈ 177 µM)
Zygosaccharomyces bailii [22]
  MFC: 50 µg/mL (≈ 177 µM)
Cutibacterium acnes [23]
  MIC: 25 µg/mL (≈ 88.5 µM)
Zygosaccharomyces bailii [24]
  MIC: 50 µg/mL (≈ 177 µM)

## CCCOC(=O)c1cc(O)c(O)c(O)c1 [PROPYL GALLATE]
Aspergillus niger [3]
  MFC: > 3200 µg/mL
Aspergillus niger [4]
  MFC: > 3200 µg/mL
Bacillus subtilis
  MBC: 1600 µg/mL (≈ 7540 µM)
[5]
  MBC: 3200 µg/mL (≈ 15100 µM)
[31]
  MIC: 1600 µg/mL (≈ 7540 µM)
Candida albicans [6]
  MFC: 3200 µg/mL (≈ 15100 µM)
Candida albicans [7]
  MFC: > 3200 µg/mL
Klebsiella aerogenes [32]
  MIC: 3200 µg/mL (≈ 15100 µM)
Escherichia coli [33]
  MIC: 1600 µg/mL (≈ 7540 µM)
Klebsiella aerogenes [8]
  MBC: > 3200 µg/mL
Escherichia coli [9]
  MBC: 1600 µg/mL (≈ 7540 µM)
Micrococcus luteus [34]
  MIC: 1600 µg/mL (≈ 7540 µM)
Micrococcus luteus [10]
  MBC: 3200 µg/mL (≈ 15100 µM)
Proteus vulgaris [11]
  MBC: 400 µg/mL (≈ 1890 µM)
Pseudomonas aeruginosa [12]
  MIC: 3200 µg/mL (≈ 15100 µM)
Cutibacterium acnes [13]
  MBC: 800 µg/mL (≈ 3770 µM)
Proteus vulgaris [14]
  MIC: 400 µg/mL (≈ 1890 µM)
Pseudomonas aeruginosa [15]
  MBC: > 3200 µg/mL
Salmonella enterica
  MBC: > 3200 µg/mL
Staphylococcus aureus [16]
  MIC: 1600 µg/mL (≈ 7540 µM)
Staphylococcus aureus [35]
  MIC: 1600 µg/mL (≈ 7540 µM)
Staphylococcus aureus [17]
  MBC: 3200 µg/mL (≈ 15100 µM)
Streptococcus mutans [36]
  MIC: 400 µg/mL (≈ 1890 µM)
Saccharomyces cerevisiae [18]
  MFC: > 3200 µg/mL
Saccharomyces cerevisiae [19]
  MFC: 3200 µg/mL (≈ 15100 µM)
Staphylococcus aureus [20]
  MBC: 3200 µg/mL (≈ 15100 µM)
Streptococcus mutans [21]
  MBC: 800 µg/mL (≈ 3770 µM)
Zygosaccharomyces bailii [22]
  MFC: > 3200 µg/mL
Cutibacterium acnes [23]
  MIC: 800 µg/mL (≈ 3770 µM)
Zygosaccharomyces bailii [24]
  MIC: > 3200 µg/mL
